Legend:
HCT 116 (PI3Kα H1047R) = experiment: pAKT (T308) ELISA assay, HCT 116; format: cell-based; details: Homo sapiens, PI3KαH1047R, IGF1, read-out: Cellular pAKT (T308) IC50 HCT 116
Method: (§1) In another embodiment, the pAKT ELISA Assay was performed by seeding cells onto 96-well plates (Corning, 3904) in their respective growth media at the densities listed in Table 3. Cells were incubated at 37° C., 5% CO2 for 48 h (except MDA-MB-453 cells which were cultured in the absence of CO2). Compounds were serially diluted in DMSO and subsequently diluted in serum-free DMEM. Test compounds were added to cells in serum-free DMEM at a final concentration of 0.3% DMSO and incubated for 3 h. Cells were lysed with 130 μL of ice-cold RIPA lysis buffer (50 mM Tris-HCl, pH 7.5; 0.5% sodium deoxycholic acid; 1% Triton X-100; 0.1% SDS; 150 mM NaCl) with protease and phosphatase inhibitors (1 mM EDTA, 1 mM NaF, 20 mM β-glycerophosphate, 1 mM Na-orthovanadate, Complete-Mini EDTA-free, Roche, 11836170001, and Phosphatase Inhibitor Cocktail I, Sigma, P2850), directly in 96-well plates. Cells were lysed on ice for 60-120 min at 4° C. The supernatants were added directly to capture ELISA plates previously pre-coated with rabbit anti-AKT capture antibody. […] The wells were measured for luminescence using a Wallac plate reader at wavelength of 560 nm. After normalization of pAKT signal to total AKT1 signal, IC50 values were determined relative to the DMSO-treated control.

PI3Kβ = PI3Kβ (Homo sapiens, UniProt P42338); experiment: PI3K biochemical assay, PI3Kβ
Method: PI3Kα activity is measured as the percent of ATP consumed following the kinase reaction using luciferase-luciferin-coupled chemiluminescence. Reactions were conducted in 384-well white, medium binding microtiter plates (Greiner). Kinase reactions were initiated by combining test compounds, ATP, substrate (PIP2), and kinase in a 20 μL volume in a buffer solution. The standard PI3Kalpha assay buffer is composed 50 mM Tris, pH 7.5, 1 mM EGTA, 10 mM MgCl2, 1 mM DTT and 0.03% CHAPS. The standard assay concentrations for enzyme, ATP, and substrate are 1.5 nM, 1 μM, and 10 μM, respectively. The reaction mixture was incubated at ambient temperature for approximately 2 h. Following the kinase reaction, a 10 μL aliquot of luciferase-luciferin mix (Promega Kinase-Glo) was added and the chemiluminescence signal measured using a Victor2 plate reader (Perkin Elmer). […] Substituting PI3Kα with PI3Kβ, PI3Kγ, or PI3Kδ, the inhibitory activity of the compounds for the other isoforms of I3K were measured.

PI3Kδ = PI3Kδ (Homo sapiens, UniProt O00329); experiment: PI3K biochemical assay, PI3Kδ; details: PIP2 as substrate
Method: PI3Kα activity is measured as the percent of ATP consumed following the kinase reaction using luciferase-luciferin-coupled chemiluminescence. Reactions were conducted in 384-well white, medium binding microtiter plates (Greiner). Kinase reactions were initiated by combining test compounds, ATP, substrate (PIP2), and kinase in a 20 μL volume in a buffer solution. The standard PI3Kalpha assay buffer is composed 50 mM Tris, pH 7.5, 1 mM EGTA, 10 mM MgCl2, 1 mM DTT and 0.03% CHAPS. The standard assay concentrations for enzyme, ATP, and substrate are 1.5 nM, 1 μM, and 10 μM, respectively. The reaction mixture was incubated at ambient temperature for approximately 2 h. Following the kinase reaction, a 10 μL aliquot of luciferase-luciferin mix (Promega Kinase-Glo) was added and the chemiluminescence signal measured using a Victor2 plate reader (Perkin Elmer). Total ATP consumption was limited to 40-60% and IC50 values of control compounds correlate well with literature references. Substituting PI3Kα with PI3Kβ, PI3Kγ, or PI3Kδ, the inhibitory activity of the compounds for the other isoforms of I3K were measured.

[1] = test system: NCI-H460 (PI3K-E545K/KRAS-Q61H); experiment: pAKT (T308) ELISA assay, NCI-H460; format: cell-based; details: Homo sapiens, PI3KαE545K, read-out: Cellular pAKT (T308) IC50 NCI-H460
Method: as §1

PI3Kδ, sequence (O00329 whole entry): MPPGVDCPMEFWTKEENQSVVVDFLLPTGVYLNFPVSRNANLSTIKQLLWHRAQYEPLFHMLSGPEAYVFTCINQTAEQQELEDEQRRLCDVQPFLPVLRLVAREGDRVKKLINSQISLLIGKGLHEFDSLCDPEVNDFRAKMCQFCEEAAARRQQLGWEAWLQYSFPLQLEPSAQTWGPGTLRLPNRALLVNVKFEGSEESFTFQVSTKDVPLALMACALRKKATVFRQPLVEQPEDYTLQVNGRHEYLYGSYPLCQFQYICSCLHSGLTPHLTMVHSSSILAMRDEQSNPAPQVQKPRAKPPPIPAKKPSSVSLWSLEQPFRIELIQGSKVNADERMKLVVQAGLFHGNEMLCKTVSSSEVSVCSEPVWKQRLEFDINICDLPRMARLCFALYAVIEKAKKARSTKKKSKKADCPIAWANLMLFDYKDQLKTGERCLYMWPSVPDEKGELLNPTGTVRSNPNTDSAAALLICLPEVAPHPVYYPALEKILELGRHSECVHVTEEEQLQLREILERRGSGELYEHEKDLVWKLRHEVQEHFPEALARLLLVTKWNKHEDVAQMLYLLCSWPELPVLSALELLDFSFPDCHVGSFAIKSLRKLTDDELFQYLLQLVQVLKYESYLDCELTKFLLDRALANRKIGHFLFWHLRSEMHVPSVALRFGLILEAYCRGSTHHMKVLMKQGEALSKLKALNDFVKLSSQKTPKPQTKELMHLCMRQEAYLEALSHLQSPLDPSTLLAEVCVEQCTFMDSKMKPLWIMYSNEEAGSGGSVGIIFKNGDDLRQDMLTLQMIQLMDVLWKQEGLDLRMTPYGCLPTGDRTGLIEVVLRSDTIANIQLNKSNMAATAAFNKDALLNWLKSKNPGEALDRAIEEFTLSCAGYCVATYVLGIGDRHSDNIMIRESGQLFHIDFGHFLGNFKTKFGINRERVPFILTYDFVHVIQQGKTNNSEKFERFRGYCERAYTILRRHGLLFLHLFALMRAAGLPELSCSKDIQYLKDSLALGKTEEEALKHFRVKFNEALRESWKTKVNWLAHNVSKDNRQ
PI3Kδ, sequence (P27986 whole entry partner): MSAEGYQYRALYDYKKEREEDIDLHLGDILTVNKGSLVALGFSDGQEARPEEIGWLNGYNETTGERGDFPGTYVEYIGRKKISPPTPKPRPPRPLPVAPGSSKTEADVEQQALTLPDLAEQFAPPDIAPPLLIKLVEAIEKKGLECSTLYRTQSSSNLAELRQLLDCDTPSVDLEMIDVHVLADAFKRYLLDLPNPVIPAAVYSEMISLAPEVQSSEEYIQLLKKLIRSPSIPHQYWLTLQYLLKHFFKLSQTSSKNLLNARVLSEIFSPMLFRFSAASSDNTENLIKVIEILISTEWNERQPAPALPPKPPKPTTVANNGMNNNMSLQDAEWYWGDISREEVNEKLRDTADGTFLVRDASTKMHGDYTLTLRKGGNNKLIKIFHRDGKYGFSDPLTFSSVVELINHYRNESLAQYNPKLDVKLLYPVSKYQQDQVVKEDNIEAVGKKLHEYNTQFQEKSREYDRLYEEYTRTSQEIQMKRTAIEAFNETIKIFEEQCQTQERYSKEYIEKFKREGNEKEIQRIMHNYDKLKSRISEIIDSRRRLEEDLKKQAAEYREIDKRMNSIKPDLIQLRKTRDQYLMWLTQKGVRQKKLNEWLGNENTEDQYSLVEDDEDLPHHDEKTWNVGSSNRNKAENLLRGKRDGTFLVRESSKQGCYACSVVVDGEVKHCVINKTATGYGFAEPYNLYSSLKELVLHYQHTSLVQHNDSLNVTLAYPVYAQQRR
PI3Kβ, sequence (P42338 whole entry): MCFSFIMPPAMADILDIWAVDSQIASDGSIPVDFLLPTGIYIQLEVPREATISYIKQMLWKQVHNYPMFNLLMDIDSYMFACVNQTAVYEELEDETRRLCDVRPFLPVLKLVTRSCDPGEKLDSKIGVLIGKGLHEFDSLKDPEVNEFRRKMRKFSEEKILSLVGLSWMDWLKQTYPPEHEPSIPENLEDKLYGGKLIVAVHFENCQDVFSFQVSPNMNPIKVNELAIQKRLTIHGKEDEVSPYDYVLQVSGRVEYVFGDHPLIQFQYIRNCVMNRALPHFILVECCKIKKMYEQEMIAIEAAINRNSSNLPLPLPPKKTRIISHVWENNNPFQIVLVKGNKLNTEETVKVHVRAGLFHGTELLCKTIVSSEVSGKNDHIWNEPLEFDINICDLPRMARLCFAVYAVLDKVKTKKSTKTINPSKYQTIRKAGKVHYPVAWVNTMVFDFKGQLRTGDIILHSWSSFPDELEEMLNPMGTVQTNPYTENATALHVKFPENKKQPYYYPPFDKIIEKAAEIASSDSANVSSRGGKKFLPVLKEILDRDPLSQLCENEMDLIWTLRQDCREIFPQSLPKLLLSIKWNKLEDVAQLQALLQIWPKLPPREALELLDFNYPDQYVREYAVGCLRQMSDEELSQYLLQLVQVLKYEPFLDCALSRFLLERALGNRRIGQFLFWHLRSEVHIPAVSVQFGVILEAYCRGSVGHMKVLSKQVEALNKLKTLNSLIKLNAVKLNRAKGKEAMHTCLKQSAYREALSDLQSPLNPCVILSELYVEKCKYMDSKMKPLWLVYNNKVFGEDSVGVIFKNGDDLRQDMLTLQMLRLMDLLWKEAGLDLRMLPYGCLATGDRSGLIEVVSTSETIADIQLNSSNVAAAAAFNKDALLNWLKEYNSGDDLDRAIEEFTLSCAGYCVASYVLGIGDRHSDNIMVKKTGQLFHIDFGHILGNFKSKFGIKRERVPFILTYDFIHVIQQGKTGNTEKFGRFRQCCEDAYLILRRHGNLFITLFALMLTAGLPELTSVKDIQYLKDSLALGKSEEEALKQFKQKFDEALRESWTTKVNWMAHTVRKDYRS
PI3Kβ, sequence (P27986 whole entry partner): as the sequence (P27986 whole entry partner) above

## Cc1cc(C(C)Nc2ccccc2)c2nc(N3CCOCC3)cc(=O)n2c1 (stereo not shown) [TGX-221, 7-methyl-2-(4-morpholinyl)-9-[1-(phenylamino)ethyl]-4H-pyrido[1,2-a]pyrimidin-4-one]
HCT 116 (PI3Kα H1047R)
  IC50: 26.4 µM
PI3Kβ
  activity against PI3Kβ (in words): active
PI3Kδ
  IC50: 0.142 µM
[1]
  IC50: > 30 µM

— patent US20140066431A1, “Benzoxazepines as Inhibitors of PI3K/mTOR and Methods of Their Use and Manufacture” (Exelixis, Inc., priority 2010, published 2014)
